Drawing on US11286268B1, “EIF4E-inhibiting compounds and methods” (EFFECTOR THERAPEUTICS, INC., priority 2019, dated 2022), this text covers IC50 for 47 molecules.

The target of the assay is recombinant eIF4E (Homo sapiens (Human), UniProt P06730). As to the kind of experiment: Fluorescence polarization competition assay for eIF4E binding potency. In outline:
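IC50 derived from fluorescence polarization over an 8-point, 3-fold compound series after 30 min room-temperature equilibration in the dark. Mix: eIF4E 75 nM pre-bound 5 min to 20 nM EDA-m^7GDP-ATTO-550; buffer 20 mM Tris pH 7.5, 100 mM NaCl, 1 mM DTT, 0.02% Tween-20; DMSO 1%.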
(Fluorescence polarisation rises when a labelled molecule tumbles more slowly, as on binding a larger partner.)

Setting [1] is: inhibition of eIF4E/EDA-m7GDP-ATTO-550 binding, calculated IC50 values, Table 4B, read-out: IC50.
The mark [2] stands for this setting: fluorescence polarization competition, 75 nM recombinant eIF4E, 20 nM EDA-m7GDP-ATTO-550, IC50 class, read-out: elF4E FP.
Setting [3] is: inhibition of eIF4E/EDA-m7GDP-ATTO-550 binding by 50%, Table 4B calculated values, read-out: IC50.

Molecules are shown by their SMILES. Like-named read-outs stand apart in the source and are kept apart here. Where only a bound is given, the exact number is not on record here.

recombinant eIF4E, sequence (P06730 whole entry): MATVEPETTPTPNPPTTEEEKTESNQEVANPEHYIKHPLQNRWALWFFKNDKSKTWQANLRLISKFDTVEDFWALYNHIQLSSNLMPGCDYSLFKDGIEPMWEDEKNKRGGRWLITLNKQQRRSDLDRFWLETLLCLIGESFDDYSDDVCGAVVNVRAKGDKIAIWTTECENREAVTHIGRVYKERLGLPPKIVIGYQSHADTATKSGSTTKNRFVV

`Cc1nc2cnc(N(C)C3CCN([C@H]4C[C@@H](OC(F)(F)F)C4)CC3)c(C#N)c2c(=O)n1CC#Cc1ccc(Cl)cc1-c1ccnc2c(C(=O)NS(=O)(=O)c3ccncc3)csc12` [compound 1773]: the IC50 under setting [1] was 47.5 nM.

With `Cc1cc(-c2cc(Cl)ccc2OCCn2c(C)nc3cc(C(F)(F)F)c(CN4CCS(=O)(=O)CC4)c(C#N)c3c2=O)c2scc(C(=O)O)c2n1` [compound 1377], the IC50 under setting [1] was 44 nM.

As for `CCc1cc(-c2cc(Cl)ccc2OCCn2c(C)nc3cc(C(F)(F)F)c(N4CCN(C)CC4)c(C#N)c3c2=O)c2sc(C)c(C(=O)O)c2n1` [compound 1087], the IC50 runs as follows: under setting [2], less than 50 nM; under setting [3], 39.2 nM.

As for `CNc1cc2c(=O)n(CCOc3ccc(Cl)cc3-c3cccc(C(=O)O)c3)c(C)nc2cn1` [compound 2006], the IC50 under setting [1] was 611 nM.

As to `O=C(O)c1cccc(-c2cc(Cl)ccc2OCCn2ccc3cccnc3c2=O)c1` [compound 7], the IC50 is, setting by setting: under setting [2], greater than 1000 nM; under setting [3], 12000 nM.

As for `Cc1nc2cnc(N3CCC4(CC3)CN(CC(C)(F)F)C4)c(C#N)c2c(=O)n1CC#Cc1ccc(Cl)cc1-c1ccnc2c(C(=O)O)csc12` [compound 1137], the IC50 runs as follows: under setting [2], less than 50 nM; under setting [3], 17.4 nM.

Turning to `Cc1nc2c(F)cc(C(F)F)c(C#N)c2c(=O)n1CC#Cc1ccc(Cl)cc1-c1ccnc2c(C(=O)O)csc12` [compound 557], the IC50 under setting [2] is less than 50 nM and the IC50 under setting [3] was 6.4 nM.

As for `Cc1nc2cnc(N(C)C3CCN(C4CC(F)(F)C4)CC3)c(C#N)c2c(=O)n1CC#Cc1ccc(Cl)cc1-c1ccnc2c(C(=O)NS(=O)(=O)C3CCC3)csc12` [compound 1810], the IC50 under setting [1] was 12.9 nM.

Consider `Cc1nc2cc(Cl)c(Cl)c(C#N)c2c(=O)n1CCOc1ccc(Cl)cc1-c1ccnc2c(C(=O)O)csc12` [compound 207], for which the IC50 under setting [2] was less than 50 nM and the IC50 under setting [3] is 21.3 nM.

Turning to `Cc1nc2cc(Cl)c(CN(C)C)c(C#N)c2c(=O)n1CCOc1ccc(Cl)cc1-c1ccnc2c(C(=O)O)csc12` [compound 509], the IC50 is, setting by setting: under setting [2], 50 to 1000 nM; under setting [3], 125 nM.

Consider `N#Cc1ccc(C#N)c2c(=O)n(CCOc3ccc(Cl)cc3-c3cccc(C(=O)O)c3)cnc12` [compound 1990], for which the IC50 under setting [1] was 58.1 nM.

For `Cc1nc2cnc(N(C)C3CCN(CC(F)(F)C4CC4)CC3)c(C#N)c2c(=O)n1CC#Cc1ccc(Cl)cc1-c1ccnc2c(C(=O)O)csc12` [compound 1125], the IC50 runs as follows: under setting [2], less than 50 nM; under setting [3], 14.5 nM.

On to `CCc1ncc(C#N)c2c(=O)n(CCOc3ccc(Cl)cc3-c3cc(C)nc4c(C(=O)O)csc34)c(C)nc12` [compound 338], for which the IC50 was less than 50 nM under setting [2] and 45.3 nM under setting [3].

In the case of `Cc1cc(-c2cc(Cl)ccc2OCCn2c(C)nc3cc(C(F)(F)F)c4c(c3c2=O)C(=O)CC4)c2scc(C(=O)O)c2n1` [compound 1974], the IC50 under setting [1] is 51.3 nM.

Consider `Cc1cc(-c2cc(Cl)ccc2OCCn2c(C)nc3cnc(C4CCC(F)(F)C4)c(C#N)c3c2=O)c2scc(C(=O)O)c2n1` (stereo not shown) [compound 930], for which the IC50 reads like this: under setting [2], less than 50 nM; under setting [3], 6.88 nM.

For the molecule `Cc1nc2cnc(N(C)C3CCN(C(C)(C)C(C)(F)F)CC3)c(C#N)c2c(=O)n1CC#Cc1ccc(Cl)cc1-c1ccnc2c(C(=O)O)csc12` [compound 1506], the IC50 under setting [1] was 27.4 nM.

With `Cc1nc2cc(C(F)(F)F)c(N3CCN(C)CC3)cc2c(=O)n1CCOc1ccc(Cl)cc1-c1ccnc2c(C(=O)O)csc12` [compound 1230], the IC50 under setting [2] was less than 50 nM and the IC50 under setting [1] is 10.3 nM.

For the molecule `Cc1ccc(-c2cc(Cl)ccc2OCCn2c(C)nc3cc(C(F)(F)F)c(CN(C)C)c(C#N)c3c2=O)c2scc(C(=O)O)c12` [compound 564], the IC50 runs as follows: under setting [2], less than 50 nM; under setting [3], 40.5 nM.

Regarding `Cc1nc2c(S(C)(=O)=O)ccc(C#N)c2c(=O)n1CCOc1ccc(Cl)cc1-c1ccnc2c(C(=O)O)csc12` [compound 229], the IC50 was less than 50 nM under setting [2] and 22.2 nM under setting [3].

With `Cc1c(C#N)c2cc(C(F)(F)F)cc(C#N)c2c(=O)n1CCOc1ccc(Cl)cc1-c1ccnc2c(C(=O)O)csc12` [compound 263], under setting [2], the IC50 was less than 50 nM.

With `Cc1cc(-c2cc(Cl)ccc2OCCn2c(C)nc3cc(C(F)(F)F)c(-c4ccncc4C)nc3c2=O)c2scc(C(=O)O)c2n1` [compound 436], the IC50 runs as follows: under setting [2], less than 50 nM; under setting [3], 7.17 nM.

Regarding `Cc1cc(-c2cc(Cl)ccc2OCCn2c(C)nc3cnc(-c4ccccc4C(F)(F)F)c(C#N)c3c2=O)c2scc(C(=O)O)c2n1` [compound 950], the IC50 under setting [2] was less than 50 nM and the IC50 under setting [3] is 17.2 nM.

On to `N#Cc1cccc2nc(C(F)F)n(CCOc3ccc(Cl)cc3-c3cccc4c(C(=O)O)csc34)c(=O)c12` [compound 2017], for which the IC50 under setting [1] is 50.6 nM.

`Cc1nc2cnc(N(C)C3CCN(CC(F)F)CC3)c(C#N)c2c(=O)n1CC#Cc1ccc(Cl)cc1-c1ccnc2c(C(=O)NO)csc12` [compound 1560]: the IC50 under setting [1] was 6.31 nM.

In the case of `Cc1nc2cnc(N3CCN(C)C4CC43)c(C#N)c2c(=O)n1CCOc1ccc(Cl)cc1-c1ccnc2c(C(=O)O)csc12` (stereo not shown) [compound 1301], the IC50 under setting [1] was 15.5 nM.

Turning to `Cc1cc(-c2cc(Cl)ccc2OCCn2c(C)nc3cc(C(F)(F)F)c(-c4ccn(C)n4)c(C#N)c3c2=O)c2scc(C(=O)O)c2n1` [compound 779], the IC50 is, setting by setting: under setting [2], less than 50 nM; under setting [3], 9.54 nM.

In the case of `Cc1c(C(F)(F)F)cc2nc(C)n(CC#Cc3ccc(Cl)cc3-c3cn(C)c(=O)c4c(C(=O)O)csc34)c(=O)c2c1C#N` [compound 754], the IC50 runs as follows: under setting [2], less than 50 nM; under setting [3], 17.2 nM.

For the molecule `Cc1c([N+](=O)O)c2cc(C(F)(F)F)cc(C#N)c2c(=O)n1CCOc1ccc(Cl)cc1-c1ccnc2c(C(=O)O)csc12` [compound 270], the IC50 under setting [2] is less than 50 nM.

In the case of `Cc1nc2cnc(N3CCC4(CC3)CN(CC(F)F)C4)c(C#N)c2c(=O)n1CC#Cc1ccc(Cl)cc1-c1ccnc2c(C(=O)NS(=O)(=O)c3cccnc3)csc12` [compound 1409], the IC50 under setting [1] is 10.8 nM.

Turning to `Cc1nc2cnc(N3CC4(C3)CN(C3CC3)C4)c(C#N)c2c(=O)n1CCOc1ccc(Cl)cc1-c1ccnc2c(C(=O)O)csc12` [compound 1314], the IC50 under setting [1] was 18.1 nM.

Consider `Cc1nc2cc(Cl)c(Cl)c(C#N)c2c(=O)n1CC#Cc1ccc(Cl)cc1-c1ccnc2c(C(=O)O)csc12` [compound 257], for which the IC50 is, setting by setting: under setting [2], 50 to 1000 nM; under setting [3], 69.2 nM.

`Cc1nc2cc(C(F)(F)F)c(CN(C)C)cc2c(=O)n1CCOc1ccc(Cl)cc1-c1ccnc2c(C(=O)O)csc12` [compound 408]: the IC50 was less than 50 nM under setting [2] and 31.1 nM under setting [3].

Turning to `Cc1nc2cc(C(F)(F)F)cc(S(C)(=O)=O)c2c(=O)n1CCOc1ccc(Cl)cc1-c1ccnc2c(C(=O)O)csc12` [compound 223], the IC50 reads like this: under setting [2], 50 to 1000 nM; under setting [3], 950 nM.

On to `Cc1nc2cc(C(F)(F)F)c(F)c(C#N)c2c(=O)n1CCOc1ccc(Cl)cc1-c1ccnc2c(C(=O)O)csc12` [compound 246], for which the IC50 is, setting by setting: under setting [2], less than 50 nM; under setting [3], 43 nM.

`Cc1nc2cc(C(F)(F)F)cc(C#N)c2c(=O)n1CCOc1cnc(C#N)cc1-c1ccnc2c(C(=O)O)csc12` [compound 291]: the IC50 under setting [2] is 50 to 1000 nM and the IC50 under setting [3] was 99.5 nM.

Regarding `Cc1nc2ccc(S(C)(=O)=O)c(C#N)c2c(=O)n1CCOc1ccc(Cl)cc1-c1ccnc2c(C(=O)O)csc12` [compound 195], the IC50 is, setting by setting: under setting [2], less than 50 nM; under setting [3], 27.4 nM.

As to `CCc1cc(-c2cc(Cl)ccc2OCCn2c(C)nc3cc(C(F)(F)F)c(CC4CN(C)C4)c(C#N)c3c2=O)c2scc(C(=O)O)c2n1` [compound 1394], under setting [1], the IC50 is 4.74 nM.

For `Cc1nc2cnc(N(C)C3CCN([C@H]4C[C@H](OC(F)F)C4)CC3)c(C#N)c2c(=O)n1CC#Cc1ccc(Cl)cc1-c1ccnc2c(C(=O)NS(=O)(=O)c3ccccn3)csc12` [compound 1763], under setting [1], the IC50 was 23.3 nM.

For the molecule `Cc1cc(-c2cc(Cl)ccc2OCCn2c(C)nc3cc(C(F)(F)F)c(-c4cncnc4)nc3c2=O)c2scc(C(=O)O)c2n1` [compound 768], the IC50 by setting is: under setting [2], less than 50 nM; under setting [3], 22.4 nM.

As to `Cc1sc2c(-c3cc(Cl)ccc3OCCn3c(C)nc4cc(S(C)(=O)=O)c(N5CCN(C)CC5)c(C#N)c4c3=O)ccnc2c1C(=O)O` [compound 1294], the IC50 under setting [1] is 55.9 nM.

In the case of `Cc1nc2cc(F)c(S(C)(=O)=O)c(C#N)c2c(=O)n1CCOc1ccc(Cl)cc1-c1ccnc2c(C(=O)O)csc12` [compound 279], the IC50 is less than 50 nM under setting [2] and 17.8 nM under setting [3].

Take `Cc1cc(-c2cc(Cl)ccc2OCCn2c(C)nc3cnc(N4[C@@H]5CC[C@H]4CN(C)C5)c(C#N)c3c2=O)c2sc(C)c(C(=O)O)c2n1` [compound 1092]: the IC50 runs as follows: under setting [2], less than 50 nM; under setting [3], 42.7 nM.

Regarding `Cc1cc(-c2cc(Cl)ccc2OCCn2c(C)nc3cc(C(F)(F)F)c(-c4cnc(C)c(C)c4)c(C#N)c3c2=O)c2scc(C(=O)O)c2n1` [compound 389], the IC50 is, setting by setting: under setting [2], less than 50 nM; under setting [3], 12.3 nM.

On to `Cc1cc(-c2cc(Cl)ccc2OCCn2c(C)nc3cc(Cl)c(-c4cncc(F)c4)c(C#N)c3c2=O)c2scc(C(=O)O)c2n1` [compound 394], for which the IC50 by setting is: under setting [2], less than 50 nM; under setting [3], 21.8 nM.

As to `Cc1cc(-c2cc(Cl)ccc2OCCn2c(C)nc3cc(Cl)c(N4CC(F)(F)C4)c(C#N)c3c2=O)c2scc(C(=O)O)c2n1` [compound 688], the IC50 is, setting by setting: under setting [2], less than 50 nM; under setting [3], 22.8 nM.

In the case of `Cc1cccc(-c2c(Cl)cc3nc(C)n(CCOc4ccc(Cl)cc4-c4cc(C)nc5c(C(=O)O)c(C)sc45)c(=O)c3c2C#N)n1` [compound 683], the IC50 runs as follows: under setting [2], less than 50 nM; under setting [3], 40.3 nM.

`Cc1nc2cnc(N3CCN(CC4(F)CC4)CC3)c(C#N)c2c(=O)n1CCOc1ccc(Cl)cc1-c1ccnc2c(C(=O)O)csc12` [compound 1470]: the IC50 under setting [1] was 30.8 nM.
